Test results published in US20080207859A1, “F[…] LOW RESIDUAL AMOUNT OF F[…] PROCESS FOR ITS PRODUCTION” (Asahi Glass Company, Limited, priority 2005, published 2008).

Test: Measurement of 1-octanol/water partition coefficient (LogPOW) by HPLC, OECD Test Guideline 117
Assay type: physicochemical
Conditions: for LogPOW (1-octanol/water partition coefficient): HPLC method, OECD Test Guideline 117, calculated from elution time via calibration curve of standard carboxylic acids, column temperature 40° C.; for bioaccumulation potential (judged from LogPOW value compared to APFO): inferred from LogPOW relative to APFO
Experimental: In accordance with OECD Test Guideline 117, 1-octanol/water partition coefficient (LogPOW) of a fluorinated emulsifier was measured by using HPLC (high performance liquid chromatography).
Conditions for the measurement were as follows:
column: TOSOH ODS-120T column (φ4.6 mm×250 mm), eluent: acetonitrile/0.6 mass % of HClO4 aqueous solution=1/1 (vol/vol %), flow rate: […], sample amount: 300 μL, column temperature: 40° C., and detection light: UV 210 nm (WO2005-42593).
HPLC was carried out on standard substances (heptanoic acid, octanoic acid, nonanoic acid and decanoic acid) having known 1-octanol/water partition coefficients, and a calibration curve was prepared from the respective elution times and octanol/water partition coefficients of the respective standard substances. Based on this calibration curve, a value of partition coefficient (LogPOW) between 1-octanol and water was calculated from the elution time by HPLC of the fluorinated emulsifier.

| Compound | LogPOW (1-octanol/water partition coefficient) | bioaccumulation potential (judged from LogPOW value compared to APFO) |
| --- | --- | --- |
| N.O=C(O)C(F)(F)C(F)(F)C(F)(F)C(F)(F)C(F)(F)C(F)(F)C(F)(F)F [CF3(CF2)6COONH4, ammonium perfluorooctanoate] | 3.67 |  |
| N.O=C(O)C(F)(F)OC(F)(F)C(F)(F)OC(F)(F)C(F)(F)F [CF3CF2OCF2CF2OCF2COONH4] | 3.13 | low |
| N.O=C(O)C(F)(OC(F)(F)C(F)(OC(F)(F)C(F)(F)F)C(F)(F)F)C(F)(F)F (centres unmarked) [CF3CF2OCF(CF3)CF2OCF(CF3)COONH4] | 4.03 | high |
